Laboratory results from ChEMBL document CHEMBL3867471, “Identification of lead small molecule inhibitors of glycogen synthase kinase-3 beta using a fragment-linking strategy” (Bioorg Med Chem Lett, 2016).

Target: Glycogen synthase kinase-3 beta (Homo sapiens, UniProt P49841)
Experiment: Inhibition of human GSK3beta using YRRAAVPPSPSLSRHSSPHQ(pS)EDEEE as substrate in presence of gamma-33P-ATP

Sequence of Glycogen synthase kinase-3 beta (P49841 whole entry): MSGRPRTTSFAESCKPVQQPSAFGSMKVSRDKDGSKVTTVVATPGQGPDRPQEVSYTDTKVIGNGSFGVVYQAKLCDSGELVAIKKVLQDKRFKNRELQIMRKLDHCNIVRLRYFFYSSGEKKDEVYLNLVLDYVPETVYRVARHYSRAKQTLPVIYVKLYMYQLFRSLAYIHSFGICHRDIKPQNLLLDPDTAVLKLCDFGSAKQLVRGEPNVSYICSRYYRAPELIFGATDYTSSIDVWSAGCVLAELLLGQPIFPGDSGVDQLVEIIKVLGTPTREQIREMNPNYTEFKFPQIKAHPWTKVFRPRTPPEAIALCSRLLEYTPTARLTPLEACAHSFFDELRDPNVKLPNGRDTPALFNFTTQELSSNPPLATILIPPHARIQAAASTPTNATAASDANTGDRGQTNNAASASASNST

Row | Structure (SMILES) | IC50 [nM]
1 | O=C(CNC(=O)c1cnc2[nH]c(-c3ccccc3)cc2c1)NCCc1c[nH]c2ccccc12 | > 50000
2 | O=C(CNC(=O)c1cnc2[nH]ccc2c1)NCCc1c[nH]c2ccccc12 | > 50000
3 | O=C(/C=C/c1cnc2[nH]cc(-c3ccccc3)c2c1)NCCc1ccccn1 | 19
4 | O=C(/C=C/c1cnc2[nH]cc(-c3ccccc3)c2c1)NCCc1cccnc1 | 32
5 | C[C@@H](NC(=O)/C=C/c1cnc2[nH]cc(-c3ccccc3)c2c1)[C@@H](O)c1ccccc1 | 180
6 | O=C(CNC(=O)c1cnc2[nH]cc(C(=O)c3ccccc3)c2c1)NCCc1c[nH]c2ccccc12 | 15700
7 | O=C(CNC(=O)c1ccc2[nH]cc(-c3ccccc3)c2c1)NCCc1c[nH]c2ccccc12 | > 50000
8 | O=C(/C=C/c1cnc2[nH]cc(-c3ccccc3)c2c1)N[C@@H](CO)Cc1ccccc1 | 752
9 | O=C(CNC(=O)c1cnc2[nH]cc(-c3ccccc3)c2c1)NCCc1c[nH]cn1 | 2610
10 | O=C(/C=C/c1cnc2[nH]cc(-c3ccccc3)c2c1)NCCc1c[nH]cn1 | 49
